Test results from US6576671B1, “Aminotetralin derivatives for the therapy of cardiovascular diseases” (Chiese Farmaceutici S.p.A., priority 1999, dated 2003).

Key:
dogs = details: approximately 10 μg/kg per minute continuous intravenous infusion; cited from earlier work
[1] = test system: rats with left ventricular dysfunction; test: Rat model of left ventricular dysfunction after coronary artery occlusion, urine catecholamine excretion; format: in vivo
Description: Myocardial infarction (MI) was induced by left coronary artery ligation in 134 rats, and 6 were left unoperated. After two months, the survived animals with ECG evidence of MI entered a four-week treatment phase. They were randomly allocated to one of the following treatments: 1) delapril 6 mg.kg^−1.day^−1, (n=12), 2) delapril 6 mg.kg^−1.day^−1 and CHF 1024 0.33 mg.kg^−1.day^−1(n=13), 3) vehicle (0.05% ascorbic acid; n=12).
Delapril was dissolved in drinking water at the final concentration of 0.043 mg/ml. The delapril solutions were prepared, freshly every third day and their concentration adjusted to body weight every 15 days to obtain an average dose of 6 mg.kg^−1.day^−1.
CHF 1024 was administered continuously for four weeks through osmotic minipumps implanted subcutaneously behind the neck.
Concentrated solutions of CHF 1024 were dissolved in 10% ascorbic acid in distilled water at a final concentration of 40 mM (mean delivery rate 0.33 mg.kg^−1.day^−1).
At week 4 of treatment, the rats were placed in individual metabolic cages to collect 24-hour urine for measuring catecholamine excretion. […] Only rats with mean infarct size >12%, histologically determined in 6-10 serial cross-sections as percentage of LV area, were analyzed. The numbers of animals analyzed in each experimental group were 6 (vehicle), 6 (delapril alone), 8 (delapril and CHF 1024) and 6 non-operated.

[2] = biological target: peripheral DA2 dopaminergic receptors (Oryctolagus cuniculus, UniProt G1T1Q0); test: Peripheral DA2 dopaminergic activity in electrically stimulated rabbit rectococcygeus muscle; details: for IC50: read-out: IC50, 50% inhibition of the electrically induced contraction
Description: The activity of CHF 1024 and CHF 1035 on peripheral DA2 dopaminergic receptors has been tested in the electrically stimulated rabbit rectococcygeus muscle.

[3] = biological target: T1, peripheral DA2 dopaminergic receptors (Bos taurus, UniProt P20288); test: Peripheral DA2 dopaminergic binding test, [3H](-)sulpiride, bovine adrenal cortex
T1 construct: peripheral DA2 dopaminergic receptors was tested on bovine adrenal cortex; from tissue; host or cells: bovine adrenal cortex
Description: The affinity of CHF 1024 for peripheral DA2 dopaminergic receptors was tested on bovine adrenal cortex evaluating its effect on the interaction of [^3H](-)sulpiride with the specific binding sites of this system.

anesthetized rats = test: In vivo cardiovascular effects in anesthetized rats; design: species or system rat; details: for mean arterial pressure, change from basal value: 0.69 µg/kg/min i.v.
Description: Male albino rats (Sprague Dawley, 350-400 g) were anesthetized by sodium pentobarbital (60 mg/kg) and maintained by i.v. infusion (6 mg/h). The trachea was cannulated to facilitate spontaneous respiration and body temperature was maintained at 37 C. Homoiothermic Blanket Control System (Harvard, England).
The right femoral artery was cannulated for arterial blood pressure measurement and left jugular vein or duodenum were cannulated for drug administration. Mean arterial pressure and heart rate were continuously monitored by pressure transducer and medium gain amplifier triggered by the ECG signal, respectively. […]
CHF 1035 was administered intraduodenally (1 mg/kg).
The response to […] was determined in the absence and in the presence of the selective β2-adrenoceptor antagonist ICI 118.551 (0.2 mg/kg i.v.) and the selective DA2-dopaminergic antagonist domperidone (0 3 mg/kg i.v.) both alone and in combination. The antagonists were administered 10 min before the i.d. drug administration.

α2 adrenergic receptors [4] = test: α2 adrenergic receptor binding, [3H]-rauwolscine, rat cerebral cortex; details: for IC50: rat cerebral cortex, read-out: IC50, 50% inhibition of [3H]-rauwolscine specific binding
Description: The affinity of CHF 1024 and CHF 1035 for α2, adrenergic receptors was tested on human platelets and on rat cerebral cortex.
(§1) The antagonist [^3H]-rauwolscine was used as marker of the receptor, being its binding reversible, saturable and specific.
Values are expressed as IC50=molar concentration of drug required for 50% inhibition of [^3H]-rauwolscine specific binding.

dopamine receptor = details: cited from earlier work
α2-adrenergic receptors = test: α2-adrenergic activity in isolated neuronally-stimulated rat vas deferens; details: for IC50: isolated neuronally-stimulated rat vas deferens, read-out: IC50, 50% inhibition of the electrically induced contraction
α2 adrenergic receptors [5] = biological target: T2, α2 adrenergic receptors (Homo sapiens, UniProt P08913); test: α2 adrenergic receptor binding, [3H]-rauwolscine, human platelets
T2 construct: from tissue; host or cells: human platelets
T2 sequence (P08913 1-465): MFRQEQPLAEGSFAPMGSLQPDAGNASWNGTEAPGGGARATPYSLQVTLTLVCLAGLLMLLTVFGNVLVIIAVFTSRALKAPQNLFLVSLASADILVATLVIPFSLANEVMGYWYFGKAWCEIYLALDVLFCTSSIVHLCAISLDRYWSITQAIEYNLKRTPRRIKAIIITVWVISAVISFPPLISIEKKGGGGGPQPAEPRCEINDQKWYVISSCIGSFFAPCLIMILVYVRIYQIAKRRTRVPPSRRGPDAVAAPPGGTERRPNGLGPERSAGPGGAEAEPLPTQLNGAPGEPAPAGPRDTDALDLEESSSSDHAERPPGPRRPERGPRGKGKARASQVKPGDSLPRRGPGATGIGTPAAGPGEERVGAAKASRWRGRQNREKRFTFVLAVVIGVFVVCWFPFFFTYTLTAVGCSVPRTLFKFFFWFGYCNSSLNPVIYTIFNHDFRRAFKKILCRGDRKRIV
Description: as §1

Sequence of peripheral DA2 dopaminergic receptors (Oryctolagus cuniculus, UniProt G1T1Q0) (G1T1Q0 1-443): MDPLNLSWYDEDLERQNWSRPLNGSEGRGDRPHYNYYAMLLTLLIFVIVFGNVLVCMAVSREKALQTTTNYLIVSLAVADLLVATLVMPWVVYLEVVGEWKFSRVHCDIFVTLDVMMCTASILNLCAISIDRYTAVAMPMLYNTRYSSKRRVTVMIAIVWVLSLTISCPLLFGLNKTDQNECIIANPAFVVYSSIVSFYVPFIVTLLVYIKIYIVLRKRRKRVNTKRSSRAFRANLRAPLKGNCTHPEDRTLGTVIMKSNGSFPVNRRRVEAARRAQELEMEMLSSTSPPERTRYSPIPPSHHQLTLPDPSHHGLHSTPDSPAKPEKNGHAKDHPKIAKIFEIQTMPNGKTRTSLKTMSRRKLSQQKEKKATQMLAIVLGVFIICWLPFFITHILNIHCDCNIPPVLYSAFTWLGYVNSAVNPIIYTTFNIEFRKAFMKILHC
T1 sequence (P20288 whole entry): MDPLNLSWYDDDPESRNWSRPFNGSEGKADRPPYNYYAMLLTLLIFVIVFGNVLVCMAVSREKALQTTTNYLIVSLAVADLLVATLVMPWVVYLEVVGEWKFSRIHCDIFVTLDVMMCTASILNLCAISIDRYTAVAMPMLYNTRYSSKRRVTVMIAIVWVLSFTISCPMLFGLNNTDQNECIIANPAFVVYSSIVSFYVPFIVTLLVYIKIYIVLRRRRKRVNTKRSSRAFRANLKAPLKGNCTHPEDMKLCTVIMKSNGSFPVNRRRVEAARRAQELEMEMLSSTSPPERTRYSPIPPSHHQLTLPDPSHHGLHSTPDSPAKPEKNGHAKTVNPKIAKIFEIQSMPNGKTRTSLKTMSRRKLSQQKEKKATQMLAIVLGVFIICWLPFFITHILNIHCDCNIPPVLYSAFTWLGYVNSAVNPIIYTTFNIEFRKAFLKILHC

For `Br.CNC1CCc2c(ccc(O)c2O)C1` (stereo not drawn) [5,6-dihydroxy-2-methylaminotetralin hydrobromide], the coronary blood flow (dogs) is given as “substantial increase”.
In the case of `CNC1CCc2c(ccc(O)c2O)C1` (stereo not drawn) [CHF 1024, 5,6-dihydroxy-2-methylaminotetralin], the “urine norepinephrine excretion, reduced with respect to the vehicle group” value ([1]; CHF 1024 0.33 mg.kg^−1.day^−1 s.c. minipump added to delapril 6 mg.kg^−1.day^−1, week 4) is reported as 40%, the “effect in presence of selective DA2-antagonist domperidone” value [2] is reported as “competitively antagonized” and the “more potent than dopamine” value [2] is reported as “approximately 3 times”. For the same molecule, the IC50 [2] was 0.0373 µM, the IC50 [3] was 0.021 µM and the “affinity for DA2 receptors higher than dopamine” value ([3]; bovine adrenal cortex) was 11 times. For the same molecule, the “mean arterial pressure, change from basal value” (shortened to “mean arterial pressure, change”) (anesthetized rats; 5 min after infusion start) was −24.0, the “mean arterial pressure, change” value (anesthetized rats; 5 min after infusion stop) was −12.7 and the “mean arterial pressure, change” value (anesthetized rats; 30 min after infusion start) was −25.7. The “mean arterial pressure, change” value (anesthetized rats; 30 min after infusion stop) was −6.7, the “effect on mean arterial pressure” value (anesthetized rats; intravenous administration, persists after infusion discontinuation) was “dose-dependent reduction” and the heart rate (anesthetized rats; intravenous infusion, in spite of marked hypotension) was “no increase”. For the same molecule, the “affinity higher than dopamine” value (α2 adrenergic receptors [4]; cerebral cortex) was 15 times, the IC50 (α2 adrenergic receptors [4]) was 0.262 µM and the “dopamine receptor agonist activity in relaxing splenic artery strips” value (dopamine receptor) was “inactive”. The IC50 (α2-adrenergic receptors) was 0.27 µM, the “more potent than dopamine” value (α2-adrenergic receptors; rat vas deferens) was “about 20 times” and the IC50 (α2 adrenergic receptors [5]; human platelets, read-out: IC50, 50% inhibition of [3H]-rauwolscine specific binding) was 0.339 µM. For the same molecule, the “affinity higher than dopamine” value (α2 adrenergic receptors [5]; platelets) was 9 times.
Molecule `NCCc1ccc(O)c(O)c1` [DOPAMINE, dopamine, reference compound] has an IC50 [2] of 0.0993 µM, an IC50 (α2 adrenergic receptors [4]) of 4.06 µM and an IC50 (α2-adrenergic receptors) of 4.91 µM.
With `CCOC(=O)[C@H](CCc1ccccc1)N[C@@H](C)C(=O)N(CC(=O)O)C1Cc2ccccc2C1` [delapril, reference compound] the urine norepinephrine excretion ([1]; delapril alone 6 mg.kg^−1.day^−1, week 4, 24-hour urine) was “unaffected”.
